Where two headings read alike, the source gives them in different places.
Test: Pharmacokinetic profiles by cassette dosing in dog (IV and PO)
Type: in vivo
Conditions: male beagle dogs, 1 mg/kg; for bioavailability: read-out: F (PO), percent bioavailability
Protocol: The pharmacokinetic profiles of EXAMPLE 20, EXAMPLE 22, EXAMPLE 29 and EXAMPLE 31 were evaluated using cassette dosing protocols in dog. The cassette dosing protocol in dogs combined three test compounds with the reference compound (EXAMPLE 104 of commonly-owned U.S. Pat. No. 5,866,549), each at a dose of 1 mg/kg. The compounds for each cassette were formulated as a solution in an aqueous vehicle containing 10% ethanol and one equivalent hydrochloric acid. Groups of three male beagle dogs received either an intravenous dose (IV) or an oral dose (PO). Sequential blood samples were taken from each animal for 24 hours after dosing. The plasma concentrations of the test compound and reference compounds were simultaneously determined using HPLC-MS/MS following liquid-liquid extraction of the samples. The results are shown in TABLE 2, in which […] is plasma clearance; T1/2 and Tmax are expressed in hours; Cmax is expressed in μg/mL; AUC is expressed in μg·h/mL; F is percent bioavaibility; and volumes of distibution Vc and Vβ are volume of the central compartment and terminal phase distribution, respectively.

| SMILES | AUC (dog, in vivo, intravenous dose, read-out: AUC (IV)) [ng·h/mL] | clearance (dog, in vivo, intravenous dose, read-out: CLp (IV), plasma clearance (converted)) [mL/min/kg] | half-life (dog, in vivo, intravenous dose, read-out: T½ (IV) (converted)) [h] | Cmax (dog, in vivo, oral dose) [ng/mL] | Tmax (dog, in vivo, oral dose) [h] | AUC (dog, in vivo, oral dose, read-out: AUC (PO)) [ng·h/mL] | bioavailability (dog, in vivo, oral dose) [%] | half-life (dog, in vivo, oral dose, read-out: T½ (PO) (converted)) [h] | Vc (IV), volume of the central compartment (intravenous dose) | Vβ (IV), terminal phase distribution volume (intravenous dose) | bioavailability (dog, plasma, oral dose) [%] | AUC (IV) (intravenous dose) [ng·h/mL] | CLp (IV), plasma clearance (intravenous dose) | T½ (IV) (intravenous dose) [h] | AUC (PO) (oral dose) [ng·h/mL] | Cmax (PO) (oral dose) [ng/mL] | Tmax (PO) (oral dose) [h] | T½ (PO) (oral dose) [h] |
| --- | --- | --- | --- | --- | --- | --- | --- | --- | --- | --- | --- | --- | --- | --- | --- | --- | --- | --- |
| CC[C@H]1OC(=O)[C@H](C)C(=O)[C@H](C)[C@@H](O[C@@H]2O[C@H](C)C[C@H](N(C)C)[C@H]2O)C(C)(OCC#Cc2ccc(-c3nnn(C)n3)s2)C[C@@H](C)C(=O)[C@H](C)[C@H]2NC(=O)O[C@@]21C (stereo in doubt) [7B, (3aS,4R,7R,9R,10R,11S,13R,15R,15aR)-10-(((2S,3R,4S,6R)-4-(dimethylamino)-3-hydroxy-6-methyltetrahydro-2H-pyran-2-yl)oxy)-4-ethyl-3a,7,9,11,13,15-hexamethyl-11-((3-(5-(2-methyl-2H-tetraazol-5-yl)thien-2-yl)prop-2-ynyl)oxy)octahydro-2H-oxacyclotetradecino[4,3-d][1,3]oxazole-2,6,8,14(1H,7H,9H)-tetrone] | 11900 | 1.5 | 9 | 720 | 1.3 | 9660 | 80.3 | 6.7 | 0.9 | 1.2 |  |  |  |  |  |  |  |  |
| CC[C@H]1OC(=O)[C@@](C)(F)C(=O)[C@H](C)[C@@H](O[C@@H]2O[C@H](C)C[C@H](N(C)C)[C@H]2O)[C@@](C)(OCC#Cc2ccc(-c3nnn(C)n3)s2)C[C@@H](C)C(=O)[C@H](C)[C@H]2NC(=O)O[C@@]21C [3B, (3aS,4R,7S,9R,10R,11S,13R,15R,15aR)-10-(((2S,3R,4S,6R)-4-(dimethylamino)-3-hydroxy-6-methyltetrahydro-2H-pyran-2-yl)oxy)-4-ethyl-7-fluoro-3a,7,9,11,13,15-hexamethyl-11-((3-(5-(2-methyl-2H-tetraazol-5-yl)thien-2-yl)prop-2-ynyl)oxy)octahydro-2H-oxacyclotetradecino [4,3-d][1,3]oxazole-2,6,8,14(1H,7H,9H)-tetrone] |  |  |  |  |  |  |  |  | 1.6 | 3.1 | 73.6 | 7290 | 0.16 | 14.4 | 5140 | 250 | 2 | 11.1 |
| CC[C@H]1OC(=O)[C@H](C)C(=O)[C@H](C)[C@@H](O[C@@H]2O[C@H](C)C[C@H](N(C)C)[C@H]2O)[C@@](C)(OC/C=C/c2ccc(-c3nnn(C)n3)s2)C[C@@H](C)C(=O)[C@H](C)[C@H]2NC(=O)O[C@@]21C [4B, (3aS,4R,7R,9R,10R,11S,13R,15R,15aR)-10-(((2S,3R,4S,6R)-4-(dimethylamino)-3-hydroxy-6-methyltetrahydro-2H-pyran-2-yl)oxy)-4-ethyl-3a,7,9,11,13,15-hexamethyl-11-(((2E)-3-(5-(2-methyl-2H-tetraazol-5-yl)thien-2-yl)prop-2-enyl)oxy)octahydro-2H-oxacyclotetradecino[4,3-d][1,3]oxazole-2,6,8,14(1H,7H,9H)-tetrone] |  |  |  |  |  |  |  |  | 0.9 | 1.1 | 63 | 11520 | 0.09 | 8.4 | 6770 | 490 | 1.5 | 7.8 |
| CC[C@H]1OC(=O)[C@@](C)(F)C(=O)[C@H](C)[C@@H](O[C@@H]2O[C@H](C)C[C@H](N(C)C)[C@H]2O)[C@@](C)(OC/C=C/c2ccc(-c3nnn(C)n3)s2)C[C@@H](C)C(=O)[C@H](C)[C@H]2NC(=O)O[C@@]21C [8B, (3aS,4R,7S,9R,10R,11S,13R,15R,15aR)-10-(((2S,3R,4S,6R)-4-(dimethylamino)-3-hydroxy-6-methyltetrahydro-2H-pyran-2-yl)oxy)-4-ethyl-7-fluoro-3a,7,9,11,13,15-hexamethyl-11-(((2E)-3-(5-(2-methyl-2H-tetraazol-5-yl)thien-2-yl)prop-2-enyl)oxy)octahydro-2H-oxacyclotetradecino[4,3-d][1,3]oxazole-2,6,8,14(1H,7H,9H)-tetrone] |  |  |  |  |  |  |  |  | 1.1 | 2.3 | 81.1 | 16130 | 0.07 | 22.9 | 12600 | 480 | 4.5 | 17.2 |

Reference: patent US20030207820A1, “Antibacterial compounds with improved pharmacokinetic profiles” (priority 2002, published 2003)
